Results reported in ChEMBL document CHEMBL3232938, “Design, synthesis, and biological evaluation of dihydroartemisinin-fluoroquinolone conjugates as a novel type of potential antitubercular agents” (2014).
≈ marks a conversion by molar mass, not a printed value.

What was measured:
Type in all cases: functional
[1] = test system: Mycobacterium tuberculosis; test: Antibacterial activity against multidrug-resistant 1 ug/ml Mycobacterium tuberculosis clinical isolate 1259 assessed as growth inhibition after 7 days by microtiter plate assay; conditions: isolate 1259, 168 h
[2] = test system: Mycobacterium tuberculosis; test: Antibacterial activity against multidrug-resistant 1 ug/ml Mycobacterium tuberculosis clinical isolate 930 assessed as growth inhibition after 7 days by microtiter plate assay; conditions: isolate 930, 168 h
[3] = test system: Mycobacterium tuberculosis; test: Antibacterial activity against multidrug-resistant 1 ug/ml Mycobacterium tuberculosis clinical isolate 1288 assessed as growth inhibition after 7 days by microtiter plate assay; conditions: isolate 1288, 168 h
[4] = test system: Mycobacterium tuberculosis; test: Antibacterial activity against multidrug-resistant 1 ug/ml Mycobacterium tuberculosis clinical isolate 1237 assessed as growth inhibition after 7 days by microtiter plate assay; conditions: isolate 1237, 168 h
[5] = test system: Mycobacterium tuberculosis; test: Antibacterial activity against multidrug-resistant 1 ug/ml Mycobacterium tuberculosis clinical isolate 1256 assessed as growth inhibition after 7 days by microtiter plate assay; conditions: isolate 1256, 168 h

SMILES | MIC [1] | MIC [2] | MIC [3] | MIC [4] | MIC [5]
C[C@H]1[C@@H](OCCCNC2CCN(c3c(F)cc4c(=O)c(C(=O)O)cn(C5CC5)c4c3Cl)C2)O[C@@H]2O[C@@]3(C)CC[C@H]4[C@H](C)CC[C@@H]1[C@@]24OO3 (stereo not given in full) | 2 µg/mL (≈ 2.9 µM) | 4 µg/mL (≈ 5.8 µM) | 0.125 µg/mL (≈ 0.181 µM) | 2 µg/mL (≈ 2.9 µM) | 16 µg/mL (≈ 23.2 µM)
C[C@H]1[C@@H](OCCNC2CCN(c3c(F)cc4c(=O)c(C(=O)O)cn(C5CC5)c4c3Cl)C2)O[C@@H]2O[C@@]3(C)CC[C@H]4[C@H](C)CC[C@@H]1[C@@]24OO3 (stereo not given in full) | 2 µg/mL (≈ 2.96 µM) | 4 µg/mL (≈ 5.92 µM) | 0.125 µg/mL (≈ 0.185 µM) | 2 µg/mL (≈ 2.96 µM) | 16 µg/mL (≈ 23.7 µM)
C[C@H]1[C@@H](O)O[C@@H]2O[C@@]3(C)CC[C@H]4[C@H](C)CC[C@@H]1[C@@]24OO3 [ARTENIMOL] | > 16 µg/mL | > 16 µg/mL | > 16 µg/mL | > 16 µg/mL | > 16 µg/mL
NC1CCN(c2c(F)cc3c(=O)c(C(=O)O)cn(C4CC4)c3c2Cl)C1 (stereo not given) [CLINAFLOXACIN] | 0.125 µg/mL (≈ 0.342 µM) | 4 µg/mL (≈ 10.9 µM) | 1 µg/mL (≈ 2.73 µM) | 1 µg/mL (≈ 2.73 µM) | 0.5 µg/mL (≈ 1.37 µM)
CCn1cc(C(=O)O)c(=O)c2cc(F)c(N3CCNCC3)cc21 [NORFLOXACIN] | 2 µg/mL (≈ 6.26 µM) | > 16 µg/mL | > 16 µg/mL | > 16 µg/mL | 16 µg/mL (≈ 50.1 µM)
O=C(O)c1cn(-c2ccc(F)cc2)c2cc(N3CCNCC3)c(F)cc2c1=O [SARAFLOXACIN] | 4 µg/mL (≈ 10.4 µM) | > 16 µg/mL | > 16 µg/mL | > 16 µg/mL | 16 µg/mL (≈ 41.5 µM)
